The values below come from patent US11021435B2, “Serotonin receptor-targeting compounds and methods” (priority 2014, dated 2021).

The structures appear in SMILES notation. “Also recorded” adds a separate entry of the source.

In data set [1] the test system is C57BI/6J mice. The data set is described as follows: d-amphetamine (AMP)-elicited hyperlocomotion in C57BI/6J mice. The format is in vivo. The conditions noted are these: 5.6 mg/kg; AMP 3 mg/kg; 30 min session. The source says: (§1) Regarding glutamate neurotransmission in stereotypy, the NMDA receptor antagonist, MK-801, characteristically elicits stereotypic rotations that appear to mimic monogenetic stereotypy observed in Fmr1 KO mice. Furthermore, mutations and autoantibodies of the NMDA glutamate receptor that decrease its function are causally linked to ASD, intellectual disabilities, and psychiatric symptoms in humans.

The target of data set [2] is T1, 5-HT2C receptors (5-HT2C-INI) (Homo sapiens, UniProt P28335).
T1 construct: expressed in transfected cells; host or cells: HEK293, transient
T1 sequence (P28335 33-458): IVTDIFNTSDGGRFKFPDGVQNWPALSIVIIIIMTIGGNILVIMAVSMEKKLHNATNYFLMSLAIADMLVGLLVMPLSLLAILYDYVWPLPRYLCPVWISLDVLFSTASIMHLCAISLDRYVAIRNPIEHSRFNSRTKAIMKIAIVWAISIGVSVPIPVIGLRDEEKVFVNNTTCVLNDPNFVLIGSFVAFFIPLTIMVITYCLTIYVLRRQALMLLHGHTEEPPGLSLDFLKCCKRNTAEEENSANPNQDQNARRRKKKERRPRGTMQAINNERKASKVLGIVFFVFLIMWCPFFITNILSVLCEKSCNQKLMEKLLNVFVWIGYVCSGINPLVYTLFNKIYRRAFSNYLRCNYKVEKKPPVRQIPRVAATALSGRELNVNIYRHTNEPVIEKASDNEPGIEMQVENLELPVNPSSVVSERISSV
The data set can be described thus: Binding affinity, HEK293 cells transiently over-expressing human 5-HT2C. As to conditions: human 5-HT2C-INI.

Data set [3] is described as follows: Plasma and brain concentrations after subcutaneous administration. The format is in vivo, mice.
In the next data set the target is T2, 5-HT2C (Homo sapiens, UniProt P28335).
T2 sequence (P28335 33-458): T1 sequence (P28335 33-458)
The data set is described as follows: Functional assay at 5-HT2C, relative to 5-HT. On the set-up: expressed in transfected cells; host or cells: HEK293, transient. The format is cell-based.

The test system of a further data set is mice. The data set is described as follows: Test for serotonin syndrome. The format is in vivo. The conditions noted are these: 5.6 mg/kg. The source says:
(§2) Of note, after behavioral testing was complete, blind scorers categorized mice into two groups based on number of rears and initiated social interactions, and the two groups differentiated vehicle from (+)-5-FPT-treated mice with 100% accuracy.

Data set [4] deals with T3, 5-HT1A receptors (Homo sapiens, UniProt P08908).
T3 construct: expressed in transfected cells; host or cells: HEK293, transient
T3 sequence (P08908 1-422): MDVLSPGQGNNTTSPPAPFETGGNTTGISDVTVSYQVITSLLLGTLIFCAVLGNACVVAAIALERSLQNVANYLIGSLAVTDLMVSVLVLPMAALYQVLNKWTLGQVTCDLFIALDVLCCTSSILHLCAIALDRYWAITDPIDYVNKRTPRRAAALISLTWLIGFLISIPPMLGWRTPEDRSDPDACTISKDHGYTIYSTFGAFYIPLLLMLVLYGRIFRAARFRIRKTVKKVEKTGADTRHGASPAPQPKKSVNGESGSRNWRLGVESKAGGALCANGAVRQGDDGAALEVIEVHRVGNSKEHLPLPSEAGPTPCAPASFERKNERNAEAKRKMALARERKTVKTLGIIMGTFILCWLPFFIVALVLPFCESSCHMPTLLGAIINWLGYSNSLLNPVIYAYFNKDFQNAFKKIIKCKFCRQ
The data set can be described thus: Functional assay at 5-HT1A, relative to 5-CT. The format is cell-based.

The subject of data set [5] is C57BI/6J mice. The data set can be described thus: MK-801-elicited stereotypic rotations in C57BI/6J mice. The format is in vivo.
Source text: as §1

A further data set concerns C58/J mice. The data set is described as follows: Idiopathic stereotypic jumping in C58/J mice. The format is in vivo. The conditions noted are these: 1 and 3 mg/kg.
For a further data set, the system named is C58/J and C57BI/6J mice. The data set is described as follows: Locomotor behavior of the compound on its own (stereotypy assays). The format is in vivo. The conditions noted are these: 1, 3 and 5.6 mg/kg. The source says:
Data are from stereotypy assays using C58/J (left) and C57BI/6J (right) mice. […] Bar graphs show the mean±SEM.

The subject of data set [6] is C57BI/6J mice. The data set can be described thus: Social interactions with vehicle-treated littermates and grooming. The format is in vivo. As to conditions: 5.6 mg/kg.
Source text: Data are from C57BI/6J mice.
as §2

Data set [7] concerns C57BI/6J mice. The data set is described as follows: MK-801-elicited hyperlocomotion in C57BI/6J mice. The format is in vivo. As to conditions: 5.6 mg/kg; MK-801 0.3 mg/kg; 30 min session.
Source text: Bar graphs show the mean±SEM.
as §1

In data set [8] the target is T3, 5-HT1A receptors. The data set is described as follows: Binding affinity, HEK293 cells transiently over-expressing human 5-HT1A.
Where [9] appears, read: 30 min after 3.0 mg/kg subcutaneous, mean (SEM).
The mark [10] stands for this setting: 60 min after 3.0 mg/kg subcutaneous, mean (SEM).
Where [11] appears, read: mean (SEM) sessions, score/6 possible.

Broadly, the Ki is a measure of affinity in units of concentration, obtained from inhibition or displacement. A low value points to higher affinity. In general, Emax refers to the size of the effect at its maximum, as opposed to the concentration needed. By EC50 is commonly meant the concentration at which the effect is half-maximal. A lower EC50 goes with higher potency in that assay. With `CN(C)C1CCc2c(cccc2-c2ccccc2F)C1` (single isomer, unassigned; (+)) [(+)-5-FPT, 5-(2′-fluorophenyl)-N,N-dimethyl-1,2,3,4-tetrahydronaphthalen-2-amine], the “Amphetamine (AMP) hyperlocomotion” value in the data set on C57BI/6J mice [1] is reported as “did not reduce hyperlocomotion; also recorded: did not significantly decrease hyperlocomotion”. In data set [2] (mean (SEM)), this molecule displayed a Ki of 0.269 µM. The “Blood-brain barrier crossing, in words” value in [3] (30, 60 and 90 min after systemic administration) is given as “readily crosses the blood-brain barrier”. Further, in data set [3] (setting [9]), the Brain concentration was 1.78(0.24) μg/g and the Plasma concentration was 0.114(0.03) μg/mL. For the same molecule, in [3] (setting [10]), the Brain concentration was 2.16(0.17) μg/g and the Plasma concentration is recorded as 0.118(0.01) μg/mL. In addition, in data set [3] (90 min after 3.0 mg/kg subcutaneous, mean (SEM)), the Brain concentration is given as 1.46(0.09) μg/g. This molecule also yielded a concentration at 90 min in data set [3] (mouse, plasma, 90 min after 3.0 mg/kg subcutaneous, mean (SEM)) of 0.07 µg/mL. For the same molecule, the “Clearance in the periphery, in words” value in [3] (plasma relative to brain tissue from 30 min post-administration) is listed as “rapidly cleared in the periphery”. Further, the “Functional activity at 5-HT2C, in words” value on 5-HT2C is “nearly full-efficacy agonist”. Further, the Emax at 5-HT2C (% of maximal response relative to 5-HT, mean (SEM)) was determined as 87%. This molecule yielded an EC50 at 5-HT2C (mean (SEM)) of 0.23 µM. Besides, in the data set on mice (mean (SEM) number of sessions of six with the behavior (score/6 possible)), the “Flat Body” value is 0(0). Moreover, in the data set with mice (setting [11]), the “Forepaw Tread” value is listed as 0(0), the “Head Weave” value is 0(0), the “Moon Walk” value is on record as 0.3(0.2) and the Piloerection is listed as 0(0). For the same molecule, in the data set with mice (setting [11]), the “Straub Tail” value is given as 0(0) and the Tremor is reported as 0(0). For the same molecule, the “Symptoms of serotonin syndrome, in words” value in the data set with mice (highest behaviorally-effective dose tested) is on record as “did not result in symptoms of serotonin syndrome”. Also, the “Functional activity at 5-HT1A, in words” value on 5-HT1A receptors [4] is on record as “partial agonist”. Also, the Emax at 5-HT1A receptors [4] (read-out: EMAX 5-HT1A) turned out to be 48%. For the same molecule, in the data set on C57BI/6J mice [5], the “Stereotypic rotational behavior, compound on its own” value was “neither (+)-5-FPT nor AMP caused stereotypic rotational behavior”. Moreover, in the data set with C57BI/6J mice [5] (5.6 mg/kg, MK-801 0.3 mg/kg), the MK-801-elicited stereotypic rotations entry is recorded as “significantly reduced stereotypical rotations; also recorded: significantly reduces stereotypic rotations”. Further, in the data set with C58/J mice, the Stereotypic jumping result was “potently eliminated stereotypic jumping; also recorded: dose-dependently eliminates”. In the data set with C58/J and C57BI/6J mice, the “Locomotor behavior, compound on its own” value was “without altering locomotor behavior; also recorded: did not alter locomotion; also recorded: does not alter locomotor behavior”. In addition, in the data set on C57BI/6J mice [6], the Grooming result is reported as “decreasing grooming”. In the data set with C57BI/6J mice [6] (six one-min observation sessions), the Social interactions result is given as “significantly increased the number of initiated social interactions; also recorded: increases social interactions”. For the same molecule, the MK-801 hyperlocomotion entry in the data set on C57BI/6J mice [7] was “significantly decreased hyperlocomotion; also recorded: blocks”.
In the case of `CN(C)C1CCc2c(cccc2-c2ccccc2F)C1` (single isomer, unassigned; (-)) [(−)-5-FPT, 5-(2′-fluorophenyl)-N,N-dimethyl-1,2,3,4-tetrahydronaphthalen-2-amine], in data set [2] (bound given in μM), the Ki was over 1 µM. In addition, on 5-HT2C, the “Functional activity at 5-HT2C, in words” value is reported as “low-potency”. Besides, the “Affinity at 5-HT1A receptors, in words” value at 5-HT1A receptors [8] is listed as “no appreciable affinity”.
